# Reference: US20150148551A1, “GENISTEIN FOR REDUCING LEVELS OF STORAGE COMPOUNDS IN THE TREATMENT AND/OR PREVENTION OF LYSOSOMAL STORAGE DISEASES (LSDS)” (3G THERAPEUTICS, INC., priority 2012, published 2015)
# Columns and labels:
# ASAH1 = test: DNA microarray, ASAH1 expression in fibroblasts exposed to genistein; assay type: cell-based, human; conditions: for ASAH1 fold change Average: 48 h vs DMSO
# Protocol: (§1) The experiments were conducted to characterise the transcriptomic profile of human fibroblast cells exposed to genistein, and in particular to determine the expression of genes encoding lysosomal enzymes involved in metabolism (i.e. synthesis and degradation) of organic substances. The absence or deficiency of these enzymes' activity is responsible for occurrence of various lysosomal storage diseases (LSD) (including MPS). The tested hypothesis assumed that genistein influences the expression of many genes, among which there are genes coding for enzymes required in metabolism of compounds, which are pathologically stored in LSD. The results provide important information regarding genistein action on the molecular level within the range of gene expression modulation by this substance. The experiment was conducted in biological quintuplicates. Human dermal fibroblasts (HDFa) were exposed in vitro for 1, 24 or 48 hours to: 30, 60 or 100 μM of genistein; 0.05% DMSO (K1); or were untreated (control cells) (K2), and total RNA was isolated and analysed.
# (§2) Fibroblast cells were grown in Dulbecco (DMEM) medium supplemented with 10% fetal bovine serum (FBS) with the addition of 1% antibiotics and anti-fungal agents at 37° C. in humidified atmosphere of 5% CO2, until the required confluency was obtained.
# (§3) To determine the effect of tested compound on the transcriptom of the fibroblast cells, the growth medium was replaced with fresh medium, either non-supplemented (0.05% DMSO), or containing genistein (30, 60 or 100 μM, in 0.05% DMSO). The exposure was done for 1, 24 or 48 hours.
# (§4) Total RNA was isolated from fibroblasts using High Pure RNA Isolation Kit according to the protocol and then it was quantitatively evaluated using Quant-It™ RiboGreen® Assay Kit.
# (§5) Biotinylated cRNA was prepared using Ambion Total PrepAmp Kit for Illumina arrays.
# (§6) Standard hybridization and quantitative image analysis procedures—Illumina hybridization protocol and Illumina scanning protocol, were used.
# (§7) Processing of the results was done during data definition, including: background correction (using background subtraction method), normalization (using quantile normalization algorithm with Illumina GenomeStudio software package: gene expression module version 1.9.0) and summarization (using method, which sums the values of signal intensities from a set of probes).
# [1] = tested on: fibroblasts from patients with MPS type I, IIIA and IIIB; conditions: cited from earlier work
# CTSD = test: DNA microarray, CTSD expression in fibroblasts exposed to genistein; assay type: cell-based, human; conditions: for CTSD fold change Average: 48 h vs DMSO
# Protocol: as §1, §2, §3, §4, §5, §6, §7
# EXT1 = test: DNA microarray, EXT1 expression in fibroblasts exposed to genistein; assay type: cell-based, human
# Protocol: as §1, §2, §3, §4, §5, §6, §7
# NEU1 = test: DNA microarray, NEU1 expression in fibroblasts exposed to genistein; assay type: cell-based, human; conditions: for NEU1 fold change Average: 48 h vs DMSO
# Protocol: as §1, §2, §3, §4, §5, §6, §7
# CTSK = test: DNA microarray, CTSK expression in fibroblasts exposed to genistein; assay type: cell-based, human; conditions: for CTSK fold change Average: 48 h vs DMSO
# Protocol: as §1, §2, §3, §4, §5, §6, §7
# GNS = test: DNA microarray, GNS expression in fibroblasts exposed to genistein; assay type: cell-based, human; conditions: for GNS fold change Average: 48 h vs DMSO
# Protocol: as §1, §2, §3, §4, §5, §6, §7
# SGSH = test: DNA microarray, SGSH expression in fibroblasts exposed to genistein; assay type: cell-based, human; conditions: for SGSH fold change Average: 48 h vs DMSO
# Protocol: as §1, §2, §3, §4, §5, §6, §7
# MPS II and III = conditions: animal tests and pilot clinical trials; cited from earlier work
compound,measurement,setting,value
"O=c1c(-c2ccc(O)cc2)coc2cc(O)cc(O)c12 [genistein, 4′,5,7-trihydroxy-3-phenylchromen-4-one]",ASAH1 fold change Average 1h60/1hK1,"ASAH1; 60 μM, 1 h vs 0.05% DMSO",1.029 fold change
same,ASAH1 fold change Average,ASAH1; 60 μM,1.412 fold change
same,ASAH1 fold change Average 1h100/1hK1,"ASAH1; 100 μM, 1 h vs 0.05% DMSO",1.252 fold change
same,ASAH1 fold change Average,ASAH1; 100 μM,1.52 fold change
same,GAG synthesis,[1],reduces levels of GAG synthesis
same,storage depositions in cells,[1],causes disappearance of the storage depositions in cells
same,CTSD fold change Average 1h30/1hK1,"CTSD; 30 μM, 1 h vs 0.05% DMSO",0.9734 fold change
same,CTSD fold change Average,CTSD; 30 μM,1.3322 fold change
same,CTSD fold change Average 1h60/1hK1,"CTSD; 60 μM, 1 h vs 0.05% DMSO",1.119 fold change
same,CTSD fold change Average,CTSD; 60 μM,1.302 fold change
same,CTSD fold change Average 1h100/1hK1,"CTSD; 100 μM, 1 h vs 0.05% DMSO",1.018 fold change
same,CTSD fold change Average,CTSD; 100 μM,1.939 fold change
same,EXT1 fold change Average 1h30/1hK1,"EXT1; 30 μM, 1 h vs 0.05% DMSO",0.9138 fold change
same,EXT1 fold change Average 24h30/24hK1,"EXT1; 30 μM, 24 h vs 0.05% DMSO",0.8048 fold change
same,EXT1 fold change Average 48h30/48hK1,"EXT1; 30 μM, 48 h vs 0.05% DMSO",0.9291 fold change
same,EXT1 fold change Average 1h60/1hK1,"EXT1; 60 μM, 1 h vs 0.05% DMSO",0.9881 fold change
same,EXT1 fold change Average 24h60/24hK1,"EXT1; 60 μM, 24 h vs 0.05% DMSO",0.7005 fold change
same,EXT1 fold change Average 48h61/48hK1,"EXT1; 60 μM, 48 h vs 0.05% DMSO",0.7648 fold change
same,EXT1 fold change Average 1h100/1hK1,"EXT1; 100 μM, 1 h vs 0.05% DMSO",0.8358 fold change
same,EXT1 fold change Average 24h100/24hK1,"EXT1; 100 μM, 24 h vs 0.05% DMSO",0.6022 fold change
same,EXT1 fold change Average 48h100/48hK1,"EXT1; 100 μM, 48 h vs 0.05% DMSO",0.689 fold change
same,NEU1 fold change Average 1h30/1hK1,"NEU1; 30 μM, 1 h vs 0.05% DMSO",1.2206 fold change
same,NEU1 fold change Average,NEU1; 30 μM,1.6536 fold change
same,NEU1 fold change Average 1h60/1hK1,"NEU1; 60 μM, 1 h vs 0.05% DMSO",1.323 fold change
same,NEU1 fold change Average,NEU1; 60 μM,2.259 fold change
same,NEU1 fold change Average 1h100/1hK1,"NEU1; 100 μM, 1 h vs 0.05% DMSO",1.353 fold change
same,NEU1 fold change Average,NEU1; 100 μM,2.492 fold change
same,CTSK fold change Average 1h30/1hK1,"CTSK; 30 μM, 1 h vs 0.05% DMSO",0.9778 fold change
same,CTSK fold change Average,CTSK; 30 μM,1.2621 fold change
same,CTSK fold change Average 1h60/1hK1,"CTSK; 60 μM, 1 h vs 0.05% DMSO",1.108 fold change
same,CTSK fold change Average,CTSK; 60 μM,1.387 fold change
same,CTSK fold change Average 1h100/1hK1,"CTSK; 100 μM, 1 h vs 0.05% DMSO",0.9868 fold change
same,CTSK fold change Average,CTSK; 100 μM,1.541 fold change
same,GNS fold change Average 1h30/1hK1,"GNS; 30 μM, 1 h vs 0.05% DMSO",1.0062 fold change
same,GNS fold change Average,GNS; 30 μM,1.2473 fold change
same,GNS fold change Average 1h60/1hK1,"GNS; 60 μM, 1 h vs 0.05% DMSO",1.022 fold change
same,GNS fold change Average,GNS; 60 μM,1.495 fold change
same,GNS fold change Average 1h100/1hK1,"GNS; 100 μM, 1 h vs 0.05% DMSO",1.0219 fold change
same,GNS fold change Average,GNS; 100 μM,1.418 fold change
same,SGSH fold change Average 1h30/1hK1,"SGSH; 30 μM, 1 h vs 0.05% DMSO",1.0703 fold change
same,SGSH fold change Average 1h60/1hK1,"SGSH; 60 μM, 1 h vs 0.05% DMSO",1.065 fold change
same,SGSH fold change Average,SGSH; 60 μM,1.122 fold change
same,SGSH fold change Average 1h100/1hK1,"SGSH; 100 μM, 1 h vs 0.05% DMSO",1.07 fold change
same,SGSH fold change Average,SGSH; 100 μM,0.9299 fold change
same,effectiveness in the treatment of MPS II and III,MPS II and III,promising effectiveness
